Key:
Assay in all cases: Bliss excess, mean over the matrix (fraction); higher = more synergy
A375 (Melanoma) = system: A375 (Melanoma)
In short: (§1)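 Cell lines in DMEM/F12 or RPMI with 10% FBS were plated in 1536-well plates, held 24 hours at 37°C, 5% CO2, then given two-drug dose matrices for 72 hours (DMSO typically 0.2%). Viability was read by CellTiter-Glo 2.0 luminescence and scaled as inhibition from 0 (vehicle wells) to 1 (blank wells). Combination Emax is the second-highest inhibition in the matrix; Bliss excess is observed combination effect minus expected EA + EB − EA·EB, EA and EB being single-agent effects.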

[1] = system: ATN-1 (T-Lymphoblastic Leukemia)
In short: as §1

[2] = system: C2BBe1 (Colorectal Carcinoma)
In short: as §1

[3] = system: Daudi (Burkitt's Lymphoma)
In short: as §1

[4] = system: GRANTA-519 (B-Cell Non-Hodgkin's Lymphoma)
In short: as §1

HT-144 (Melanoma) = system: HT-144 (Melanoma)
In short: as §1

[5] = system: HT-3 (Cervical Carcinoma)
In short: as §1

[6] = system: JURL-MK1 (Chronic Myelogenous Leukemia)
In short: as §1

[7] = system: KNS-62 (Squamous Cell Lung Carcinoma)
In short: as §1

[8] = system: MDA-MB-175-VII (Breast Carcinoma)
In short: as §1

[9] = system: NCI-H1048 (Small Cell Lung Carcinoma)
In short: as §1

[10] = system: NCI-H1435 (Non-Small Cell Lung Carcinoma)
In short: as §1

[11] = system: NCI-H2009 (Lung Adenocarcinoma)
In short: as §1

[12] = system: NCI-H2023 (Non-Small Cell Lung Carcinoma)
In short: as §1

NCI-H2452 (Mesothelioma) = system: NCI-H2452 (Mesothelioma)
In short: as §1

[13] = system: RS4-11 (B-Lymphoblastic Leukemia)
In short: as §1

SK-N-DZ (Neuroblastoma) = system: SK-N-DZ (Neuroblastoma)
In short: as §1

[14] = system: SNU-1 (Gastric Carcinoma)
In short: as §1

[15] = system: TK (B-Cell Non-Hodgkin's Lymphoma)
In short: as §1

[16] = system: NCI-H835 (Other Solid Carcinomas)
In short: as §1

SMILES | Bliss excess (A375 (Melanoma)) | Bliss excess [1] | Bliss excess [2] | Bliss excess [3] | Bliss excess [4] | Bliss excess (HT-144 (Melanoma)) | Bliss excess [5] | Bliss excess [6] | Bliss excess [7] | Bliss excess [8] | Bliss excess [9] | Bliss excess [10] | Bliss excess [11] | Bliss excess [12] | Bliss excess (NCI-H2452 (Mesothelioma)) | Bliss excess [13] | Bliss excess (SK-N-DZ (Neuroblastoma)) | Bliss excess [14] | Bliss excess [15] | Bliss excess [16]
CN(CCO)CC[C@H](CSc1ccccc1)Nc1ccc(S(=O)(=O)NC(=O)c2ccc(N3CCC([C@@H](O)c4ccccc4-c4ccc(Cl)cc4)CC3)cc2)cc1S(=O)(=O)C(F)(F)F [AZD4320] + Cc1cc2ncnn2cc1Nc1ncc2c(n1)n(C1CCOCC1)c(=O)n2C [AZD7648] (first compound max 1 µM, 7x7, partner max 10 µM) | -0.0312 | 0.0479 | -0.0403 | -0.0115 | 0.0049 | -0.0122 | -0.0403 | -0.0287 | -0.0628 | -0.0145 | 0.0256 | 0.0137 | -0.0437 | -0.0585 | -0.011 | -0.0148 | -0.0362 | 0.0237 | -0.0018 | 
COc1cc2ncnc(Nc3ccc(F)c(Cl)c3)c2cc1OCCCN1CCOCC1 [Gefitinib] + CC(C)n1c(=O)n(C)c2cnc3cc(F)c(-c4ccc(OCCCN5CCCCC5)nc4)cc3c21 [AZD1390] (first compound max 10 µM, 7x7, partner max 0.3 µM) | -0.0544 | -0.0377 | -0.029 | -0.0688 | -0.0689 | -0.0682 | -0.0456 | -0.0586 | -0.0783 | -0.0191 | -0.0556 | -0.0289 | -0.0519 | -0.0463 | -0.108 | -0.0484 | -0.0375 | -0.0701 | -0.0495 | -0.0381
CN(CCO)CC[C@H](CSc1ccccc1)Nc1ccc(S(=O)(=O)NC(=O)c2ccc(N3CCC([C@@H](O)c4ccccc4-c4ccc(Cl)cc4)CC3)cc2)cc1S(=O)(=O)C(F)(F)F [AZD4320] + Nc1ccn([C@@H]2O[C@H](CO)[C@@H](O)C2(F)F)c(=O)n1 [Gemcitabine] (first compound max 1 µM, 7x7, partner max 0.3 µM) | 0.0047 |  |  |  |  |  |  |  | -0.0024 | 0.125 |  | -0.0344 | -0.013 | 0.0338 | -0.0035 |  |  |  |  | 0.0682
Cc1cc2ncnn2cc1Nc1ncc2c(n1)n(C1CCOCC1)c(=O)n2C [AZD7648] + O=C(c1cc(Cc2n[nH]c(=O)c3ccccc23)ccc1F)N1CCN(C(=O)C2CC2)CC1 [Olaparib] (first compound max 10 µM, 7x7, partner max 10 µM) | -0.0339 | -0.031 | -0.0402 | -0.0336 | -0.0416 | -0.0519 | -0.0518 | -0.0253 | -0.0507 | -0.0525 | -0.0593 | -0.0366 | -0.0372 | -0.0892 | -0.0664 | -0.0831 | 0.0102 | 0.0384 | 0.0001 | 
CN(CCO)CC[C@H](CSc1ccccc1)Nc1ccc(S(=O)(=O)NC(=O)c2ccc(N3CCC([C@@H](O)c4ccccc4-c4ccc(Cl)cc4)CC3)cc2)cc1S(=O)(=O)C(F)(F)F [AZD4320] + CCN(CCO)CCCOc1ccc2c(Nc3cc(CC(=O)Nc4cccc(F)c4)[nH]n3)ncnc2c1 [AZD2811] (first compound max 1 µM, 7x7, partner max 1 µM) | 0.0107 | 0.0082 | -0.0326 | 0.0078 | 0.191 | 0.0304 |  | 0.0346 | -0.0204 | 0.0289 | 0.139 | 0.004 | -0.0461 | -0.0636 | -0.0111 | -0.0011 | 0.0087 | 0.0461 | 0.129 | 
C[C@@H](c1ccc2nccn2c1)n1nnc2ncc(-c3cnn(C)c3)nc21 [Savolitinib] + Cc1c2c(nn1C)CSCc1cc(n(C)n1)CSc1cc(c3ccccc3c1)OCCCc1c(C(=O)O)n(C)c3c-2c(Cl)ccc13 [AZD5991] (first compound max 1 µM, 7x7, partner max 1 µM) | -0.0271 | -0.0293 | -0.0455 | -0.0126 | -0.0338 | -0.054 | -0.0255 | -0.0037 | -0.0471 | -0.0244 | 0.0012 | -0.0263 | -0.0063 | -0.0323 | -0.109 | -0.0406 | 0.002 | 0.0005 | -0.0262 | -0.0267
Cc1cc2ncnn2cc1Nc1ncc2c(n1)n(C1CCOCC1)c(=O)n2C [AZD7648] + C=CCn1c(=O)c2cnc(Nc3ccc(N4CCN(C)CC4)cc3)nc2n1-c1cccc(C(C)(C)O)n1 [AZD1775] (first compound max 10 µM, partner max 1 µM) | 0.0217 | -0.0176 | -0.0115 | -0.0101 | -0.0126 | 0.0458 | 0.0055 | -0.0773 | 0.0584 | -0.0282 | -0.0505 | 0.0816 | -0.0271 | 0.027 | 0.0647 | 0.0667 | 0.0207 | -0.0572 | -0.0568 | 0.0229
C[C@@H](c1ccc2nccn2c1)n1nnc2ncc(-c3cnn(C)c3)nc21 [Savolitinib] + CN(CC[C@H](CSC1=CC=CC=C1)NC2=C(C=C(C=C2)S(=O)(=O)NC(=O)C3=CC=C(C=C3)N4CCC(CC4)[C@H](C5=CC=CC=C5C6=CC=C(C=C6)Cl)O)S(=O)(=O)C(F)(F)F)CCO [AZD4320] (first compound max 1 µM, 7x7, partner max 1 µM) | -0.0463 | 0.0235 | -0.0348 | -0.0219 | -0.044 | -0.0287 | -0.0238 | -0.0811 |  |  | 0.0144 |  |  |  |  | -0.0131 | -0.0035 | -0.0597 | -0.08 | 
COc1cc2c(cc1OCCCCCOc1cc3c(cc1OC)C(=O)N1C=C(C)C[C@H]1C=N3)N=C[C@@H]1CC(C)=CN1C2=O [SG3199] + O=C(c1cc(Cc2n[nH]c(=O)c3ccccc23)ccc1F)N1CCN(C(=O)C2CC2)CC1 [Olaparib] (first compound max 0.001 µM, 7x7, partner max 10 µM) | -0.0304 | -0.0249 | -0.0188 | -0.0273 | -0.0226 | -0.0443 | -0.0306 | -0.0007 | -0.0464 | -0.0489 | -0.0432 | -0.0584 | -0.0297 | -0.0562 | -0.117 | 0.0338 | -0.0199 | 0.0755 | -0.0114 | -0.0406
N#Cc1cnc(Nc2cc(NC[C@H]3CNCCO3)c(C(F)(F)F)cn2)cn1 [SRA737] + Nc1ccn([C@@H]2O[C@H](CO)[C@@H](O)C2(F)F)c(=O)n1 [Gemcitabine] (first compound max 10 µM, 7x7, partner max 0.3 µM) | 0.0398 |  |  |  |  |  |  |  | 0.0488 | -0.0041 |  | 0.0521 | 0.125 | 0.0332 | 0.0892 |  |  |  |  | -0.0363
Cc1nc(Nc2ncc(C(=O)Nc3c(C)cccc3Cl)s2)cc(N2CCN(CCO)CC2)n1 [Dasatinib] + CC(=O)Nc1cccc(-n2c(=O)n(C3CC3)c(=O)c3c(Nc4ccc(I)cc4F)n(C)c(=O)c(C)c32)c1 [Trametinib] (first compound max 2 µM, 7x7, partner max 1 µM) | 0.0736 | -0.089 | 0.0323 | -0.0221 | -0.0711 | -0.0825 | -0.0594 | -0.0029 | -0.0815 | -0.132 | -0.0669 | 0.0975 | 0.0589 | -0.0228 | -0.0671 | -0.0685 | -0.0332 | -0.0263 | -0.0386 | -0.0662
CN(CCO)CC[C@H](CSc1ccccc1)Nc1ccc(S(=O)(=O)NC(=O)c2ccc(N3CCC([C@@H](O)c4ccccc4-c4ccc(Cl)cc4)CC3)cc2)cc1S(=O)(=O)C(F)(F)F [AZD4320] + CC(=O)O[C@H]1C(=O)[C@@]2(C)[C@H]([C@H](OC(=O)c3ccccc3)[C@]3(O)C[C@H](OC(=O)[C@H](O)[C@@H](NC(=O)c4ccccc4)c4ccccc4)C(C)=C1C3(C)C)[C@]1(OC(C)=O)CO[C@@H]1C[C@@H]2O [Paclitaxel] (first compound max 1 µM, 7x7, partner max 3 µM) | 0.0759 |  |  |  |  |  |  |  | 0.185 | 0.107 |  | 0.167 | 0.0889 | 0.0458 | 0.117 |  |  |  |  | 0.199
Cc1cc2ncnn2cc1Nc1ncc2c(n1)n(C1CCOCC1)c(=O)n2C [AZD7648] + C[C@@H]1COCCN1C2=NC(=NC(=C2)C3(CC3)[S@](=N)(=O)C)C4=C5C=CNC5=NC=C4 [AZD6738] (first compound max 10 µM, 7x7, partner max 10 µM) | 0.0301 | 0.0406 | 0.0209 | 0.0285 | -0.0479 | 0.0349 | 0.0076 | -0.0039 | 0.0778 | 0.0441 | 0.0425 | 0.0536 | 0.0494 | 0.0722 | 0.0084 | -0.058 | -0.018 | -0.013 | -0.0185 | 0.0417
N#Cc1cnc(Nc2cc(NC[C@H]3CNCCO3)c(C(F)(F)F)cn2)cn1 [SRA737] + O=c1[nH]cc(F)c(=O)[nH]1 [5-Fluorouracil] (first compound max 10 µM, 7x7, partner max 20 µM) | -0.0149 |  |  |  |  |  |  |  | 0.0235 | -0.0189 |  | -0.0012 | 0.0125 | 0.0353 | 0.0571 |  |  |  |  | 0.0621
C=CCn1c(=O)c2cnc(Nc3ccc(N4CCN(C)CC4)cc3)nc2n1-c1cccc(C(C)(C)O)n1 [AZD1775] + C1CN(CCC1(C(=O)N[C@@H](CCO)C2=CC=C(C=C2)Cl)N)C3=NC=NC4=C3C=CN4 [Capivasertib] (first compound max 3 µM, partner max 3 µM) |  | 0.0364 | -0.077 | 0.0313 | -0.0163 | 0.0014 | -0.0073 | 0.0007 | -0.0128 | 0.0171 | -0.0301 | 0.0011 | -0.0011 | -0.003 | -0.116 | 0.0201 | -0.0116 | 0.0488 | 0.0183 | -0.0572

Reference: the supplement of paper PMC11061612
